pIC50: −log10 of the molar value.
Key:
CCK receptor [1] = test: 125I-CCK-33 receptor binding (pancreas or brain; tissue not stated); conditions: 125I-CCK-33; tissue (rat pancreas or guinea pig brain) not stated; read-out: inhibition of specific 125I-CCK-33 binding, IC50
Protocol: (§1) CCK-33 was radiolabeled with ^125 I-Bolton Hunter reagent (2000 Ci/mmole) as described by Sankara et al. (J. Biol. Chem. 254: 9349-9351, 1979). Receptor binding was performed according to Innis and Snyder (Proc. Natl. Acad. Sci. 77: 6917-6921, 1980) with the minor modification of adding the additional protease inhibitors, phenylmethane sulfonyl fluoride and o-phenanthroline.
(§2) Male Sprague-Dawley rats (200-350g) were sacrificed by decapitation. The whole pancreas was dissected free of fat tissue and was homogenized in 20 volumes of ice-cold 50 mM, Tris HCl (pH 7.7 at 25° C.) with a Brinkmann Polytron PT 10. The homogenates were centrifuged at 48,000 g for 10 min. Pellets were resuspended in Tris Buffer, centrifuged as above and resuspended in 200 volumes of binding assay buffer (50 mM Tris HCl, pH 7.7 at 25° C., 5 mM dithriothriethel, 0.1 mM bacitracin, 1.2 mM phenylmethane sulfonyl fluoride, and 0.5 mM phenathroline). […] All assays were run in duplicate or triplicate. The reaction mixtures were incubated at 37° C. for 30 minutes and centrifuged in a Beckman Microfuge (4 minutes) immediately after adding 1 ml of ice-cold incubation buffer. The supernatant was aspirated and discarded, pellets were counted with a Beckman gamma 5000.
(§3) CCK-33 was radiolabeled and the binding was performed according to the description for the pancreas method with modifications according to Saito et al. (J. Neurochem., 37, 483-490 (1981)).
(§4) Male Hartley guinea pigs (300-500g) were sacrificed by decapitation and the brains were removed and placed in ice-cold 50 mM, Tris HCl plus 7.58 g/l Tritma-7.4 (pH 7.4 at 25° C.) Cerebral cortex was dissected and used as a receptor source. Each gram of fresh guinea pig brain tissue was homogenized in 10 ml of Tris/Trizma buffer with a Brinkman polytron PT-10. The homogenates were centrifuged at 42,000 g for 15 min. Pellets were resuspended in Tris Buffer, centrifuged as above and resuspended in 200 volumes of binding assay buffer (10 mM HEPES, pH 7.7 at 25° C., 5 mM MgCl2, 1 mM EGTA, 0.4% BSA (bovine serum albumin), and 0.25 mg/ml bacitracin). […] All assays were run in duplicate or triplicate. The reaction mixtures were incubated at 25° C. for 2 hours and centrifuged in a Beckman Microfuge (4 minutes) immediately after adding 1 ml of ice-cold incubation buffer. The supernatant was aspirated and discarded, pellets were counted with a Beckman gamma 5000.

CCK receptor [2] = conditions: various members of the cyclic nucleotide class, literature; cited from earlier work
CCK receptor [3] = biological target: T1, CCK receptor (Rattus norvegicus, UniProt P30551); test: 125I-CCK-33 receptor binding (pancreas or brain; tissue not stated); conditions: added protease inhibitors in binding buffer
T1 construct: from tissue
T1 sequence (P30551 1-444): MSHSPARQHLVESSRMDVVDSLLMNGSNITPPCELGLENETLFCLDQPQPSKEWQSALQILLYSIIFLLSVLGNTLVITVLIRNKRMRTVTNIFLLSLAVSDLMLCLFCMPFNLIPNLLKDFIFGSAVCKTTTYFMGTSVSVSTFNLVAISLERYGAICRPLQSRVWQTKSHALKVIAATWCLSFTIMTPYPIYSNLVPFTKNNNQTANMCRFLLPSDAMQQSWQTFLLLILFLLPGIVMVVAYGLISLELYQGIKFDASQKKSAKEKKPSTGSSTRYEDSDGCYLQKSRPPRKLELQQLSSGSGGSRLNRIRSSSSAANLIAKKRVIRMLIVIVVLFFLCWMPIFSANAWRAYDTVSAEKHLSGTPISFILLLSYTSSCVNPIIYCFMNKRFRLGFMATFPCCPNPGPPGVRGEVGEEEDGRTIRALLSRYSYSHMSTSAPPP
Protocol: as §1, §2, §3, §4

SMILES | pIC50 (CCK receptor [1]) | effect on the 125I-CCK receptor binding assay (CCK receptor [3]) | other results
CCCC(=O)Nc1nc2c(ncn2[C@@H]2O[C@@H]3COP(=O)(O)O[C@H]3[C@H]2OC(=O)CCC)c(=O)[nH]1 [dibutyryl cyclic GMP] |  |  | potency rank among cyclic nucleotide CCK antagonists (CCK receptor [2]): most potent
c1cnc2c(c1)ccc1cccnc12 [o-phenanthroline] |  | no effect | 
O=S(=O)(F)Cc1ccccc1 [phenylmethane sulfonyl fluoride] |  | no effect | 

More lines, main results first:

pIC50 (CCK receptor [1]) | SMILES | effect on the 125I-CCK receptor binding assay (CCK receptor [3]) | other results
4.49 | CCOC(=O)C(CCc1ccccc1)NC1CCCC(c2ccccc2)N(CC(=O)OC)C1=O (single isomer, unassigned) [1-Carbomethoxymethyl-3-(1-carbethoxy-3-phenylpropyl)amino-7-phenylperhydroazepin-2-one] |  | 
4.14 | COC(=O)CN1C(=O)C(C)(NC(CCc2ccccc2)C(=O)OC)CCc2ccccc21 (centres unmarked) [1-Carbomethoxymethyl-3-(1-carbomethoxy-3-phenylpropyl)amino-3-methyl homodihydrocarbostyril] |  | 

— patent US4757068A, “Lactams and bicyclic lactams useful as cholecystokinin antagonists” (Merck & Co., Inc., priority 1985, dated 1988)
